How the values were obtained:
[1] = cited from earlier work; for Activity as alpha-TE: alpha-tocopherol equivalents (TE), table from Vitamin E in Health and Disease, 1993, p. 21
[2] = Brain analysis of infant brain (tocopherol content and correlations); format: in vivo, human; settings: formula fed infant brain
Description: Cholesterol is a major component of myelin, and thus, is a marker for extent of CNS myelination. Glutamate is a neurotransmitter, which is reported to stimulate neuron outgrowth and branching. […] Accordingly, an excessively high level of dietary gamma-tocopherol may hinder the brain uptake of RRR alpha-tocopherol, and thus, may hinder CNS development.
Most commercial infant formulas are fortified with synthetic alpha-tocopherols. It has been reported that the plasma […] of the 2R isomers are about equal for animals fed a diet containing synthetic alpha-tocopherols. These findings indicate that RRR alpha-tocopherol is preferably absorbed into the brain or it is metabolized at a much slower rate than RSR, RRS and RSS tocopherols.

SMILES | Activity as alpha-TE [1] [mg/mg compound] | share of the alpha-tocopherol in brain that is RRR alpha-tocopherol [2] | assigned vitamin E activity ([1]; assigned reference activity)
Cc1c(O)cc2c(c1C)O[C@](C)(CCC[C@H](C)CCC[C@H](C)CCCC(C)C)CC2 [RRR gamma-tocopherol] | 0.1 | – | –
Cc1cc(O)c(C)c2c1O[C@](C)(CCC[C@H](C)CCC[C@H](C)CCCC(C)C)CC2 [RRR beta-tocopherol] | 0.5 | – | –
CC(=O)Oc1c(C)c(C)c2c(c1C)CCC(C)(CCC[C@H](C)CCC[C@H](C)CCCC(C)C)O2 (mixture of isomers) [Synthetic alpha-tocopherol acetate, alpha-tocopherol acetate] | 0.74 | – | –
Cc1c(C)c2c(c(C)c1O)CC[C@@](C)(CCC[C@H](C)CCC[C@H](C)CCCC(C)C)O2 [RRR alpha-tocopherol] | 1.0 | over 60% | 1 mg alpha-tocopherol equivalent (TE) per milligram
Cc1cc(O)cc2c1O[C@](C)(CCC[C@H](C)CCC[C@H](C)CCCC(C)C)CC2 [RRR delta-tocopherol] | 0.03 | – | –
CC(C)=CCC/C(C)=C/CC/C(C)=C/CC[C@]1(C)CCc2c(C)c(O)cc(C)c2O1 [RRR beta-tocotrienol] | 0.05 | – | –
CC(C)=CCC/C(C)=C/CC/C(C)=C/CC[C@]1(C)CCc2c(C)c(O)c(C)c(C)c2O1 [RRR alpha-tocotrienol] | 0.3 | – | –
